{"source": "patent US20230141988A1", "about": "“PHARMACEUTICAL COMPOSITION FOR USE IN THE TREATMENT OF NEUROLOGICAL DISEASES” (Aclipse One Inc., priority 2020, published 2023)", "key": {"in vivo [1]": {"assay": "in vivo", "details": "male, SD, rat; for AUC(0-inf): AUCInf; for AUC(0-t): AUClast; for MRT inf: MRTInf", "description": "(§1) The vehicle for the IV, subcutaneous, PO and IN formulation contained “0.1% sodium metabisulfite solution”.\n(§2) Male SD rats were purchased from Si Bei Fu Laboratory Animal Technology Co. Ltd (Beijing, China). The animals were about 8 weeks old with body weights of 200-300 g on the dosing date. The animals were housed in a 12-hour light/12-hour dark cycle environment and had free access to food and water. All animals were fasted overnight and fed after 4 hours collection.\n(§3) Plasma samples were collected from jugular vein at each time point after IV, subcutaneous, PO and IN administrations.\n(§4) About 200 μL of blood samples were collected from each animal via jugular vein. These blood samples were placed into the tubes containing K2EDTA. And centrifugation at 3000 g for 10 minutes in a 4° C. centrifuge. The completion time from collection was less than 30 min. The stabilizing agent of ascorbic acid at 200 mg/mL was added in a proportion of 10% in plasma. The plasma samples were stored in a freezer at −75±15° C. prior to analysis. The completion time from collection was less than 60 min.\n(§5) Calibration standard working solutions were prepared at concentrations of 2, 5, 10, 20, 50, 100, 500, 1000, 5000 and 10000 ng/mL by serial dilution of the standard stock solution in 50% acetonitrile in water. Quality control working solutions at concentrations of 5, 10, 20, 500 and 8000 ng/mL were prepared by serial dilution of the standard stock solution in 50% acetonitrile in water. These QC samples were prepared on the day of analysis in the same way as calibration standards.\n(§6) For plasma samples, 2 μL of each calibration standard working solution (2, 5, 10, 20, 50, 100, 500, 1000, 5000 and 10000 ng/mL) was added to 20 μL of the blank SD rat plasma (with 10% 200 mg/mL ascorbic acid) to achieve calibration standards of 0.2-1000 ng/mL (0.2, 0.5, 1, 2, 5, 10, 50, 100, 500, 1000 ng/mL) in a total volume of 22 μL. Quality Control (QC) samples at 0.5 ng/mL (low-1), 1 ng/mL (low-2) and 2 ng/mL (low-3), 50 ng/mL (mid), 800 ng/mL (high) for plasma were prepared independently for those used for the calibration curves. These QC samples were prepared on the day of analysis in the same way as calibration standards. The total volumes of 22 μL of standards, 22 μL of QC samples and 22 μL of unknown samples (20 μL of unknown plasma (with 10% 200 mg/mL ascorbic acid) with 2 μL 50% acetonitrile) were added to 200 μL of acetonitrile containing IS to precipitate proteins. Then the samples were vortexed for 30 sec. After centrifugation at 4° C., 4700 rpm for 30 min, and supernatant was diluted 2 times with water, 10 μL of the diluted supernatant was injected into the LC-MS/MS system for quantitative analysis.\nAll the samples were processed on ice.\n(§7) The LC-MS/MS system consisted of two Shimadzu LC-30AD pumps, a DGU-20A5R degasser, a Rack changer II and LCMS-8060 LC/MS/MS instrument mass spectrometer.\n(§8) OD-3R Particle size 3 μm 4.6 mm×150 mm column at room temperature. The mobile phase was composed of A: Water (5 mM Ammonium Acetate); B: Ethanol (5 mM Ammonium Acetate). The flow rate was 0.5 mL/min. The injection volume was 10 μL.\n(§9) A multiple reaction monitoring (MRM) method was selected for quantitative analysis. […] The instrument parameters were set as follows: ion spray voltage: 8060; heating gas flow: 10 L/min; interface temperature: 250° C.; DL temperature: 220° C.; heat block temperature: 400° C.; drying gas flow: 10 L/min.\n(§10) Data acquisition was performed by Lab Solutions version 5.89 Software (Shimadzu). All concentration data was reported with 3 significant figures. Data statistics were performed using Excel 2010 software.\n(§11) The linear trapezoidal algorithm was used for AUC calculation."}, "[2]": {"details": "plasma, fed male Cynomolgus Monkeys, PO 10 mg/kg, animal 168777C", "description": "Three male Cynomolgus Monkeys were administrated a single oral dose at 10 mg/kg. The oral vehicle was 10% (w/v) HP-β-CD in water.\nMale Cynomolgus Monkeys were purchased from Topgene Biotechnology. The animals were 2-5 years old with body weights of 2.0-5.0 kg on the dosing date. The animals were housed in a 12-hour light/12-hour dark cycle environment and had free access to food and water.\nAll animals for PO administration were fasted overnight prior to dosing and will be fed approximately 2 hours after dosing.\nThree male Cynomolgus Monkeys were assigned to this study. […] The dosing regimens and formulation (vehicle) compositions are described in the following table below:\nAnimals were weighed prior to dose administration on the day of dosing for calculating the actual dose volume. The dosages were prepared as illustrated in the table below:\nBlood samples were taken at the following times:\nWhole blood samples were gently inverted several times to ensure anticoagulation then placed on wet ice prior to centrifugation. Within 30 minutes of collection, the samples were centrifuged at approximately 4,000×g (force) for 5 minutes at 2 to 8° C. to obtain plasma. The stabilizing agent, ascorbic acid at 200 mg/mL, was added in a proportion of 10% in plasma. The plasma samples were stored in a freezer at −75±15° C. prior to analysis. The completion time from collection was less than 60 min. The resultant plasma samples will be immediately separated divided into 2 aliquots (˜75 μL each) and transferred to cryogenic vial. Samples will be maintained on wet ice throughout processing, and stored in a freezer at −75±15° C. prior to analysis. Samples should be protected from ambient light (under sodium lamp).\nCalibration standard working solutions were prepared at concentrations of 2, 5, 10, 20, 100, 500, 1000, 5000, 10000 ng/mL by serial dilution of the standard stock solution in 1:1 acetonitrile:water. Quality control working solutions at concentrations of 5, 10, 20, 500 and 8000 ng/mL were prepared by serial dilution of the standard stock solution in 1:1 acetonitrile:water. The QC samples were prepared on the day of analysis in the same way as calibration standards.\nSamples were prepared with 5 μL of each calibration standard working solution (2, 5, 10, 20, 100, 500, 1000, 5000, 10000 ng/mL) added to 50 μL of the blank Cynomolgus Monkeys plasma to achieve calibration standards concentrations of 0.2, 0.5, 1, 2, 10, 50, 100, 500, 1000 ng/mL (relative to a 50-4, plasma aliquot). Quality Control (QC) samples at 0.5 ng/mL (low-1), 1 ng/mL (low-2), 2 ng/mL (low-3), 50 ng/mL (mid) and 800 ng/mL (high) for plasma were prepared independently for those used for the calibration curves.\nTotal volumes of 55 μL of standards, 55 μL of QC samples and 55 μL of unknown samples (50 μL of plasma with 5 μL of 1:1 acetonitrile:water) were added to 200 μL of acetonitrile containing IS to precipitate proteins. Then the samples were vortexed for 30 sec. […] All of the samples were processed on ice.\nThe LC-MS/MS system consisted of two Shimadzu LC-30AD pumps, a DGU-20A5R degasser, a Rack changer II and an AB Sciex Triple Quad 5500 LC/MS/MS mass spectrometer. Chromatographic separation was performed on Agilent ZORBAX XDB-Phenyl 5 μm (50×2.1 mm) at room temperature. The mobile phase was composed of A: 5% Acetonitrile/95% water (0.1% Formic acid); B: 95% Acetonitrile/5% water (0.1% Formic acid). The flow rate was 0.6 mL/min. The injection volume was 2 μL.\nA multiple reaction monitoring (MRM) method was selected for quantitative analysis. […] The instrument parameters were set as follows: ion spray voltage: 5500 V; curtain gas: 40 psi; ion source gas 1: 50 psi; ion source gas 2: 50 psi; temperature: 450° C. The compound dependent parameters are listed as follows:\nHPLC flow rate was set at 0.6 mL/min with the following conditions:"}, "[3]": {"details": "rat, in vivo; for plasma concentration: male, SD", "description": "as §1, §2, §3, §4, §5, §6\nAll the samples were processed on ice.\nas §7, §8, §9, §10, §11"}, "in vivo [4]": {"assay": "in vivo", "details": "male, SD, rat", "description": "The vehicle for the IN and PO formulation contained “0.1% sodium metabisulfite solution”.\nThe animals were about 8 weeks old with body weights of 200-300 g on the dosing date. The animals were housed in a 12-hour light/12-hour dark cycle environment and had free access to food and water. All animals were fasted overnight and fed after 4 hours collection.\nFor group 2, plasma, CSF and brain samples were collected at 0.5 and 1 h post dose.\nFor Group 2 (PO dose, 10.56 mg/kg), blood, CSF and brain samples were collected from 3 mice at two time point: 0.5 h and 1 h post dose.\nFor plasma samples, about 200 μL of blood samples were collected from each animal via jugular vein. These blood samples were placed into the tubes containing K2EDTA, and centrifuged at 3000 g for 10 minutes in a 4° C. centrifuge. The completion time from collection was less than 30 min. The stabilizing agent of ascorbic acid at 200 mg/mL was added in a proportion of 10% in plasma. The plasma samples were stored in a freezer at −75±15° C. prior to analysis. The completion time from collection was less than 60 min.\nFor brain and CSF samples, The animals were fully exsanguinated with a rising concentration of CO2 gas prior to CSF and brain collection. […]\nFor brain collection. […] The actual concentration was the detected value multiplied by the dilution factor. […]"}, "[5]": {"assay": "Pharmacokinetic study, single IV, subcutaneous, PO and IN dose, male SD rats (plasma)", "details": "rat, in vivo", "description": "as §1, §2, §3, §4, §5, §6\nAll the samples were processed on ice.\nas §7, §8, §9, §10, §11"}, "[6]": {"details": "subcutaneous […], plasma, mean of 3 mice", "description": "9 male C57BL/6J mice following administration of a single subcutaneous dose of 4.40 mg/kg. The vehicle for the subcutaneous formulation contained “0.1% sodium metabisulfite solution”.\nMale C57BL/6J mice were purchased from Si Bei Fu Laboratory Animal Technology Co. Ltd (Beijing, China). The animals were about 8 weeks old with body weights of 20-30 g on the dosing date. The animals were housed in a 12-hour light/12-hour dark cycle environment and had free access to food and water. All animals were fasted overnight and fed after 4 hours collection.\nFor group 1, plasma samples were collected from dorsal metatarsal vein at each time point after subcutaneous administrations.\nFor plasma samples, about 30 μL or 300 μL of blood samples were collected from each animal via dorsal metatarsal vein or heart. These blood samples were placed into the tubes containing K2EDTA. And centrifugation at 3000 g for 10 minutes in a 4° C. centrifuge. The completion time from collection was less than 30 min. The stabilizing agent of ascorbic acid at 200 mg/mL was added in a proportion of 10% in plasma. The plasma samples were stored in a freezer at −75±15° C. prior to analysis. The completion time from collection was less than 60 min.\nFor brain and CSF samples, The animals were fully exsanguinated with a rising concentration of CO2 gas prior to CSF and brain collection.\nFor CSF collection, incision was made by scissors on the neck of the rats to expose the foramen magnum. A syringe fitted with a venoclysis needle was used to sample the CSF, the tip of the needle was inserted into the membrane of foramen magnum about 1-2 mm, and a negative pressure was applied by pulling a stopcock a small length of the syringe to extract CSF fluids into a tube. The stopcock was further actuated to until a sufficient amount of CSF was collected. There should be no blood in the CSF fluid. A stabilizing agent of ascorbic acid at 200 mg/mL was added in a proportion of 10% in CSF.\nFor brain collection. Brain samples were collected at an adopted time point, and washed 3 times with cold saline, then dried with clean gauze and put into the weighed tube, quick frozen in an ice box and kept at −75±15° C. All brain samples were weighted and homogenized with phosphate buffered saline (PBS) by brain weight (g) to PBS volume (mL) ratio 1:3 before analysis. The stabilizing agent of ascorbic acid at 200 mg/mL was added in a proportion of 10% in grain homogenate. The actual concentration was the detected value multiplied by the dilution factor. Brain samples were collected at designed time point, quickly homogenized and kept at −75±15° C.\nCalibration standard working solutions were prepared at concentrations of 2, 5, 10, 20, 50, 100, 500, 1000, 5000 and 10000 ng/mL by serial dilution of the standard stock solution in 50% acetonitrile in water. Quality control working solutions at concentrations of 5, 10, 500 and 8000 ng/mL were prepared by serial dilution of the standard stock solution in 50% acetonitrile in water. These QC samples were prepared on the day of analysis in the same way as calibration standards.\nFor plasma and brain samples, 3 μL of each calibration standard working solution (2, 5, 10, 20, 50, 100, 500, 1000, 5000 and 10000 ng/mL) was added to 30 μL of the blank C57BL/6J mouse plasma or brain homogenate (with 10% 200 mg/mL ascorbic acid) to achieve calibration standards of 0.2-1000 ng/mL (0.2, 0.5, 1, 2, 5, 10, 50, 100, 500, 1000 ng/mL) in a total volume of 33 μL. Quality Control (QC) samples at 0.5 ng/mL (low-1), 1 ng/mL (low-2), 50 ng/mL (mid), 800 ng/mL (high) for plasma were prepared independently for those used for the calibration curves. These QC samples were prepared on the day of analysis in the same way as calibration standards."}, "[7]": {"assay": "Plasma and CSF pharmacokinetic study, single sublingual, oral or subcutaneous dose, male Beagle dogs", "format": "in vivo", "details": "for AUC(0-inf): read-out: AUCinf", "method": "Animals were fed twice daily. […] Food was withheld until 4-hour post-dose.\nAll blood samples were collected from a peripheral vessel.\nFor CSF collection, a polypropylene tube was first weighted to accuracy of 0.1 mg (weight #1). CSF was collected in the tube and weighted again (weight #2). Total CSF weight was calculated by subtracting weight #1 from weight #2. Samples were kept on ice and protected from sunlight. Stabilizing agent (ascorbic acid 200 mg/mL) was added within 60 minutes in a proportion of 10% in CSF. Frozen CSF samples on dry ice were stored at −60° C. or lower until bioanalysis.\nAll CSF samples were added with the equal volume of plasma. […] 30 μL supernatant was then mixed with 30 μL water, vortex-mixed well and centrifuged at 4° C.\nDilution procedure description: Dilution factor as 5—An aliquot of 2 μL sample was added with 8 μL blank matrix.\nThe flow rate was 0.6 mL/min. The injection volume was 3 μL. The following gradient was implemented: […]"}, "[8]": {"details": "0.88 mg/kg, plasma concentration"}, "[9]": {"details": "iv, 0.88 mg/kg, plasma concentration"}, "[10]": {"details": "iv, 0.88 mg/kg, plasma concentration, Mean"}, "[11]": {"details": "male Beagle dogs (fasted), single SL 5 mg/kg, plasma, individual dogs"}, "[12]": {"details": "male, beagle, dog, in vivo, 5 mg/kg, CSF concentration"}}, "note": "Values joined by “and” are separate entries in the source; they are usually repeats but may differ in a detail not shown here. Identical values can stand only once. Like-named read-outs stand apart in the source and are kept apart here."}
{"smiles": "CN1CCc2cccc3c2[C@@H]1Cc1ccc(O)c(O)c1-3", "values": [{"measurement": "concentration at 0.5 h", "setting": "in vivo [1]", "value": 31, "unit": "ng/mL"}, {"measurement": "concentration at 1 h", "setting": "in vivo [1]", "value": 8.96, "unit": "ng/mL"}, {"measurement": "concentration at 2 h", "setting": "in vivo [1]", "value": 6.87, "unit": "ng/mL"}, {"measurement": "concentration at 8 h", "setting": "in vivo [1]", "value": 0.651, "unit": "ng/mL"}, {"measurement": "concentration at […]", "setting": "in vivo [1]", "value": 114, "unit": "ng/mL"}, {"measurement": "concentration at […]", "setting": "in vivo [1]; 0.88 mg/kg", "value": 119, "unit": "ng/mL"}, {"measurement": "concentration at 2 min", "setting": "in vivo [1]; [8]", "value": 42.7, "unit": "ng/mL"}, {"measurement": "concentration at 0.5 h", "setting": "in vivo [1]; [8]", "value": 40.5, "unit": "ng/mL"}, {"measurement": "concentration at 1 h", "setting": "in vivo [1]; [8]", "value": 5.76, "unit": "ng/mL"}, {"measurement": "concentration at 2 h", "setting": "in vivo [1]; [8]", "value": 1.52, "unit": "ng/mL"}, {"measurement": "concentration at 8 h", "setting": "in vivo [1]; [8]", "value": 0.877, "unit": "ng/mL"}, {"measurement": "concentration at […]", "setting": "in vivo [1]; [8]", "value": "162 ng/mL and 151 ng/mL and 107 ng/mL"}, {"measurement": "AUC(0-inf)", "setting": "in vivo [1]; iv, 0.88 mg/kg", "value": 86.6, "unit": "ng·h/mL"}, {"measurement": "AUC(0-t)", "setting": "in vivo [1]; iv, 0.88 mg/kg", "value": 83.2, "unit": "ng·h/mL"}, {"measurement": "C0", "setting": "in vivo [1]; iv, 0.88 mg/kg, C0", "value": 527, "unit": "ng/mL"}, {"measurement": "clearance", "setting": "in vivo [1]; iv, 0.88 mg/kg, Cl", "value": 169, "unit": "mL/min/kg"}, {"measurement": "MRT inf", "setting": "in vivo [1]; iv, 0.88 mg/kg", "value": 1.26, "unit": "h"}, {"measurement": "Vd", "setting": "in vivo [1]; iv, 0.88 mg/kg, Vss", "value": 12.8, "unit": "L/kg"}, {"measurement": "concentration at 2 min", "setting": "in vivo [1]; [9]", "value": 353, "unit": "ng/mL"}, {"measurement": "concentration at 0.5 h", "setting": "in vivo [1]; [9]", "value": 17.8, "unit": "ng/mL"}, {"measurement": "concentration at 1 h", "setting": "in vivo [1]; [9]", "value": 7.6, "unit": "ng/mL"}, {"measurement": "concentration at 2 h", "setting": "in vivo [1]; [9]", "value": 4.32, "unit": "ng/mL"}, {"measurement": "concentration at 8 h", "setting": "in vivo [1]; [9]", "value": 0.88, "unit": "ng/mL"}, {"measurement": "concentration at […]", "setting": "in vivo [1]; [9]", "value": 104, "unit": "ng/mL"}, {"measurement": "concentration at 2 min", "setting": "in vivo [1]; [10]", "value": 339, "unit": "ng/mL"}, {"measurement": "concentration at 0.5 h", "setting": "in vivo [1]; [10]", "value": 16.4, "unit": "ng/mL"}, {"measurement": "concentration at 1 h", "setting": "in vivo [1]; [10]", "value": 6.37, "unit": "ng/mL"}, {"measurement": "concentration at 2 h", "setting": "in vivo [1]; [10]", "value": 3.67, "unit": "ng/mL"}, {"measurement": "concentration at 8 h", "setting": "in vivo [1]; [10]", "value": 0.777, "unit": "ng/mL"}, {"measurement": "AUC(0-inf)", "setting": "in vivo [1]; sc, 0.88 mg/kg", "value": 71.2, "unit": "ng·h/mL"}, {"measurement": "AUC(0-t)", "setting": "in vivo [1]; sc, 0.88 mg/kg", "value": 70.2, "unit": "ng·h/mL"}, {"measurement": "Cmax", "setting": "in vivo [1]; sc, 0.88 mg/kg, Cmax", "value": 141, "unit": "ng/mL"}, {"measurement": "MRT inf", "setting": "in vivo [1]; sc, 0.88 mg/kg", "value": 0.873, "unit": "h"}, {"measurement": "AUClast/D", "setting": "[2]", "value": 4.26, "unit": "mg·h/mL"}, {"measurement": "plasma concentration", "setting": "[3]; 0.5 h", "value": 35.7, "unit": "ng/mL"}, {"measurement": "plasma concentration", "setting": "[3]; iv, 0.88 mg/kg, 1 h", "value": 6.23, "unit": "ng/mL"}, {"measurement": "animal death related to drug administration", "setting": "[3]", "value": "no animal death related to drug administration"}, {"measurement": "drug-related changes in clinical signs and behavioral responses", "setting": "[3]", "value": "no obvious drug-related changes in clinical signs and behavioral responses"}, {"measurement": "Kp at 0.5 h", "setting": "in vivo [4]", "value": 0.233}, {"measurement": "concentration at 0.5 h", "setting": "in vivo [4]", "value": 299, "unit": "ng/g"}, {"measurement": "Cl", "setting": "[5]; iv, 0.88 mg/kg", "value": 209, "unit": "mL/min/kg"}, {"measurement": "AUClast/D", "setting": "[5]; po, […]", "value": 7.39, "unit": "mg·h/mL"}, {"measurement": "AUClast/D", "setting": "[5]; sc, 0.88 mg/kg", "value": 77.3, "unit": "mg·h/mL"}, {"measurement": "AUClast/D", "setting": "[6]", "value": 73.8, "unit": "mg·h/mL"}, {"measurement": "MRT inf", "setting": "[7]; dog, in vivo, male Beagle dogs (fasted), single PO 10 mg/kg, plasma, individual dogs", "value": 8.44, "unit": "h"}, {"measurement": "MRT inf", "setting": "[7]; dog, in vivo, male Beagle dogs (fasted), single SL 5 mg/kg, CSF, mean", "value": 3.18, "unit": "h"}, {"measurement": "Kp", "setting": "[7]; dog, in vivo, male Beagle dogs (fasted), single SL 5 mg/kg, individual dogs, read-out: AUC Ratio (AUClast ratio of CSF to total plasma)", "value": 0.337}, {"measurement": "AUC(0-inf)", "setting": "[7]; dog, in vivo, male Beagle dogs (fasted), single SL 5 mg/kg, plasma, mean", "value": 162, "unit": "ng·h/mL"}, {"measurement": "AUMCExtra", "setting": "[7]; male Beagle dogs (fasted), single PO 10 mg/kg, plasma, individual dogs, 10 mg/kg", "value": 31.9, "unit": "%"}, {"measurement": "AUMCExtra", "setting": "[7]; male Beagle dogs (fasted), single SL 5 mg/kg, CSF, individual dogs", "value": "5.44% and 18.5%"}, {"measurement": "AUCExtra", "setting": "[7]; [11]", "value": 7.39, "unit": "%"}, {"measurement": "AUMCExtra", "setting": "[7]; [11]", "value": 10.7, "unit": "%"}, {"measurement": "AUC(0-inf)", "setting": "[7]; male, beagle, dog, CSF, po, 10 mg/kg, male Beagle dogs (fasted), single PO 10 mg/kg, CSF, individual dogs", "value": 181, "unit": "ng·h/mL"}, {"measurement": "Kp", "setting": "[7]; male, beagle, dog, in vivo, 5 mg/kg, AUClast ratio of CSF to total plasma", "value": "1.08 ± 0.964"}, {"measurement": "concentration at 2 h", "setting": "[7]; [12]", "value": 76.2, "unit": "ng/mL"}, {"measurement": "concentration at […]", "setting": "[7]; [12]", "value": 289, "unit": "ng/mL"}, {"measurement": "AUC(0-t)", "setting": "[7]; male, beagle, dog, in vivo, 5 mg/kg, male Beagle dogs (fasted), single SL 5 mg/kg, CSF, individual dogs", "value": 122, "unit": "ng·h/mL"}, {"measurement": "AUC(0-t)", "setting": "[7]; male, beagle, dog, in vivo, 5 mg/kg, male Beagle dogs (fasted), single SL 5 mg/kg, CSF, mean", "value": 162, "unit": "ng·h/mL"}, {"measurement": "Cmax", "setting": "[7]; male, beagle, dog, in vivo, 5 mg/kg, male Beagle dogs (fasted), single SL 5 mg/kg, plasma, individual dogs, read-out: Cmax", "value": 162, "unit": "ng/mL"}]}
